Data: paper PMC10120462, “Styrylquinazoline derivatives as ABL inhibitors selective for different DFG orientations” (Journal of Enzyme Inhibition and Medicinal Chemistry, 2023)

What was measured:
Fyn A = molecular target: T1, Fyn A (Homo sapiens, UniProt P06241); assay: Tyrosine kinase assay (Kinase Selectivity System TK-2, ADP-Glo); type: biochemical; details: 1 h incubation, mean ± SD of four experiments
T1 construct: purchased Promega
Description: All newly synthesised derivatives were screened for their inhibitory potential towards eight non-receptor tyrosine kinases, such as ABL, BTK, BRK and Src family kinases, such as CSK, Lyn, Lck, Fyn and Src. […] To facilitate the analysis of the structure and enzymatic activity, all tested compounds were divided into four subgroups based on the main structural scaffolds (the general structure of each group is shown in the second column of Table 1). Series A, B, and C were subdivided according to the S^4-aryl substituent, while D represents the different styryl groups at the C^2-quinazoline position.
Herein, we used a kinase assay that contained fully expressed kinases with their regulatory domains, which are responsible for autoinhibition. The proteins are present in their unphosphorylated form and the procedure required supplementation with ATP. Importantly, autophosphorylation of ABL is dependent on […] concentration of the protein. Thus, our experimental conditions reflect the cellular process to be simulated. The luminescence signal detected after one hour of incubation with a peptide substrate was a measure of inhibition. Under these conditions, the question of whether the inhibitors tested bind to the ortho or allosteric site of the protein could be answered. […] To test this hypothesis, further molecular docking experiments were performed to more precisely determine the binding of the tested compounds to the ABL kinase.
To determine the inhibition of non-receptor tyrosine kinases, assays were performed using the kinase selectivity system TK-2 and the ADP-Glo Kinase Assay (both from Promega). The protocol was previously developed by our group and described in reports[12]^,[36]. Experiments were performed at least four times. Data are expressed as percentage of tyrosine kinase inhibitory activity after treatment with the derivatives tested.

ABL = molecular target: T2, ABL (Homo sapiens, UniProt P00519); assay: as above; type: biochemical; details: 1 h incubation, mean ± SD of four experiments; for Inhibition of tyrosine kinase activity [%] ABL: 0.5 μM
T2 construct: purchased Promega
T2 sequence (P00519 whole entry): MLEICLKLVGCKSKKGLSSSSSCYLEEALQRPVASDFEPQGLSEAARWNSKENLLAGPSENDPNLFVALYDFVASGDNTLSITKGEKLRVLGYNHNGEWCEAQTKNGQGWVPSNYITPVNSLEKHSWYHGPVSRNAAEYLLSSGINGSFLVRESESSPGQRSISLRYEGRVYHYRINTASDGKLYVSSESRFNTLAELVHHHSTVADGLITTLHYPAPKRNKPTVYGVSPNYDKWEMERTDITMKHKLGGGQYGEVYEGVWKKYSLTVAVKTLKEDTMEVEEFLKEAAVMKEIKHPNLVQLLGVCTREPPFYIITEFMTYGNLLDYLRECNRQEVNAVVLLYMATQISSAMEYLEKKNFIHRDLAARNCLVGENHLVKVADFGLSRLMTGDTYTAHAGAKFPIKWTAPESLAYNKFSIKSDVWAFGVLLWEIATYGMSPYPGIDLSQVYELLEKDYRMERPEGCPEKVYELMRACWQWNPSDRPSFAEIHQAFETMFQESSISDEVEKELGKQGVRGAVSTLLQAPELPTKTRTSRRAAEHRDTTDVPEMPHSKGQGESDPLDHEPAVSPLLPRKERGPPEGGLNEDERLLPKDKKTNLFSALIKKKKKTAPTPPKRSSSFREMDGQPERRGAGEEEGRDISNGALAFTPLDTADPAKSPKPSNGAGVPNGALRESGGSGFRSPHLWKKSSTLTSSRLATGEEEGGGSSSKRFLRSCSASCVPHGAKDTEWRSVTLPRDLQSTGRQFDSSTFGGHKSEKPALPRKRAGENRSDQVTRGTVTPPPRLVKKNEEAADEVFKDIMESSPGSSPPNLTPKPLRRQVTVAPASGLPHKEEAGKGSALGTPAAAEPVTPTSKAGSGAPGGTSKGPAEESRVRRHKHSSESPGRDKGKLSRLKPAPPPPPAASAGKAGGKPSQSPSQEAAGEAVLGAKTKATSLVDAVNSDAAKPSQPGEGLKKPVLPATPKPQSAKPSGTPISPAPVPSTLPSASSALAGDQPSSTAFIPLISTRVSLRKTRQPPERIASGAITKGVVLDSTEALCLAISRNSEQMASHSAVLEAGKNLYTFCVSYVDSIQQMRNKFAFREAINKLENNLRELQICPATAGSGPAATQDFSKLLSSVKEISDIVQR

NHDF = assay: Cytotoxicity studies (MTS), normal fibroblasts; type: cell-based; details: 72 h, normal human fibroblasts, read-out: Antiproliferative activity IC50 NHDF
Description: (§1) In contrast, the other cell lines studied represent common cancers found in the human population. Nevertheless, these cell lines are characterised by a different landscape of kinase expression, as reported in[36]. In chronic leukaemia cells, an aberration of the Philadelphia chromosome is common in which a fragment of chromosome 9 is displaced to chromosome 22, leading to the formation of the oncogenic protein BCR-ABL. The altered structure of the protein leads to abnormal activity that promotes excessive growth and differentiation of cells even in the absence of growth factors, as well as inhibition of apoptosis and formation of metastases. Moreover, the status of the TP53 gene in leukaemia is not insignificant. Mutations of the TP53 gene occur in more than 50% of all cancers, leading to increased metastasis and an overall poor prognosis[38]^,[39]. The p53 protein encoded by this gene plays a pivotal role in controlling cell division or cell fate when damage is detected. […] Therefore, interaction between the signalling network of the BCR-ABL pathway and p53 often results in an impairment of p53 function and survival[43]^,[44]. […] Selectivity studies were performed on normal human fibroblast – NHDF cell line.
(§2) M. Rusin from the Maria Sklodowska-Curie Memorial Cancer Centre and Institute of Oncology in Gliwice, Poland. […] G. Kramer-Marek from the Institute of Cancer Research in London, United Kingdom. The human suspension chronic myeloids leukaemia cell line K562 and the pancreatic ductal adenocarcinoma cell line PANC-1 were purchased from Merck. The normal human dermal fibroblasts cell line NHDF were obtained from PromoCell. All adherent cancer cell lines were cultured in Dulbecco’s Modified Eagle’s medium (DMEM) supplemented with 10% heat-inactivated foetal bovine serum – FBS (all from Merck). […] Each complete medium contained a mixture of two antibiotics - penicillin and streptomycin (1% v/v; Gibco). Cell lines were cultured at 37 °C with 5% CO2 humidified atmosphere.
(§3) The assay was carried out after 72 h of incubation with different concentrations of the tested compounds. Then DMEM without phenol red was added to each well with CellTiter 96®AQueous One Solution-MTS (Promega) solution and incubated for 1 h or 3 h (PANC-1) at 37 °C. The optical densities of the samples were measured at 490 nm using a multi-plate reader (Synergy 4, BioTek). […] Each compound was tested in triplicate in a single experiment and each experiment was performed three or four times.

PANC-1 = assay: Cytotoxicity studies (MTS), antiproliferative activity; type: cell-based, human; details: Homo sapiens, PANC-1; 72 h, MTS
Description: as §1, §2, §3

K562 = assay: as above; type: cell-based, human; details: for IC50: Homo sapiens, K562, 72 h, MTS
Description: as §1, §2, §3

HCT 116 p53+/+ = assay: as above; type: cell-based, human; details: for IC50: Homo sapiens, HCT-116, 72 h, MTS
Description: as §1, §2, §3

MCF-7 = assay: as above; type: cell-based, human; details: for IC50: Homo sapiens, MCF7, 72 h, MTS
Description: as §1, §2, §3

A549 = assay: as above; type: cell-based, human; details: for IC50: Homo sapiens, A549, 72 h, MTS
Description: as §1, §2, §3

HCT 116 p53−/− = assay: as above; type: cell-based, human; details: Homo sapiens, HCT-116; 72 h, MTS
Description: as §1, §2, §3

U-251 = assay: as above; type: cell-based, human; details: for IC50: Homo sapiens, U-251, 72 h, MTS
Description: as §1, §2, §3

Src = molecular target: T3, Src (Homo sapiens, UniProt P12931); assay: Tyrosine kinase assay (Kinase Selectivity System TK-2, ADP-Glo); type: biochemical; details: 1 h incubation, mean ± SD of four experiments
T3 construct: purchased Promega
T3 sequence (P12931 whole entry): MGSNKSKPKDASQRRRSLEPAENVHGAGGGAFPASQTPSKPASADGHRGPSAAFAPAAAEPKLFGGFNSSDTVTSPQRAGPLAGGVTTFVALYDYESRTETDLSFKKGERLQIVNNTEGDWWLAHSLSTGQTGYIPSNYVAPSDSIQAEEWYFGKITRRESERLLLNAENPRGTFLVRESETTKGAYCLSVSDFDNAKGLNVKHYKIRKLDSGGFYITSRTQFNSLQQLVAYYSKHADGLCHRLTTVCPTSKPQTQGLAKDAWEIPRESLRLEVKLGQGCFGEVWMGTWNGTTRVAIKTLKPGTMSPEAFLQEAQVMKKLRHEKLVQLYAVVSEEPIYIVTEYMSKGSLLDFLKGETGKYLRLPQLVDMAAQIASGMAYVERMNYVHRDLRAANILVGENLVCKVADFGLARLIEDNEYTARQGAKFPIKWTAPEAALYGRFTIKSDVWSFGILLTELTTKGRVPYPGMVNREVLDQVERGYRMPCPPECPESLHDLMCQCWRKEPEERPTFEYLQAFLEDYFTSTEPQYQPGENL

Lck = molecular target: T4, Lck (Homo sapiens, UniProt P06239); assay: as above; type: biochemical; details: 1 h incubation, mean ± SD of four experiments
T4 construct: purchased Promega
T4 sequence (P06239 whole entry): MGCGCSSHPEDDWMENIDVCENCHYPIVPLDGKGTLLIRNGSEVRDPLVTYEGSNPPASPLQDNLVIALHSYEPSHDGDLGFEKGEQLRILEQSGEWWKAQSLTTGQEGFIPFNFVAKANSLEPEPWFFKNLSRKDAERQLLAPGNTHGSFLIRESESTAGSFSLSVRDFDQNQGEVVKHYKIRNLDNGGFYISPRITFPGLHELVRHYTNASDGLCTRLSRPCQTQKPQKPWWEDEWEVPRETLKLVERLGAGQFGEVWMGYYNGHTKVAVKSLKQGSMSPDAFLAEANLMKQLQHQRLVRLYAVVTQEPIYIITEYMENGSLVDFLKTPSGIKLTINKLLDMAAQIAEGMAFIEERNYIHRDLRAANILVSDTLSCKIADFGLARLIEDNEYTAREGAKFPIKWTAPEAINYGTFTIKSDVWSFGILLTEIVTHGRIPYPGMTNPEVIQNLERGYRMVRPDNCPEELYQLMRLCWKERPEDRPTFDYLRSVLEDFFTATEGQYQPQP

Lyn B = molecular target: T5, Lyn B (Homo sapiens, UniProt P07948); assay: as above; type: biochemical; details: 1 h incubation, mean ± SD of four experiments
T5 construct: purchased Promega
T5 sequence (P07948 1-491 isoform P07948-2): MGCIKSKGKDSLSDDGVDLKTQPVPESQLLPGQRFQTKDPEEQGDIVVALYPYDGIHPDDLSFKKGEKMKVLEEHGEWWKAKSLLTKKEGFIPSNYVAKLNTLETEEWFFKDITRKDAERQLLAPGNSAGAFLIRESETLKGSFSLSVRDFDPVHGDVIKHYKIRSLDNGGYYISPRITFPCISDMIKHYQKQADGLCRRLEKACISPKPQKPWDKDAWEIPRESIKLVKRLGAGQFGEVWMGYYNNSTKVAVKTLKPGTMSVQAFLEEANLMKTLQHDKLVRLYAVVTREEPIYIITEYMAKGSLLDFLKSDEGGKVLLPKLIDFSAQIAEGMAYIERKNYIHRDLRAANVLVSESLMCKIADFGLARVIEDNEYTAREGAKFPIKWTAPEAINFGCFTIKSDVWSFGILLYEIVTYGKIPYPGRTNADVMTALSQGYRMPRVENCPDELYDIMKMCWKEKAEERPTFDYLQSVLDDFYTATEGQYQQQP

BRK = molecular target: T6, BRK (Homo sapiens, UniProt Q13882); assay: as above; type: biochemical; details: 1 h incubation, mean ± SD of four experiments
T6 construct: purchased Promega
T6 sequence (Q13882 whole entry): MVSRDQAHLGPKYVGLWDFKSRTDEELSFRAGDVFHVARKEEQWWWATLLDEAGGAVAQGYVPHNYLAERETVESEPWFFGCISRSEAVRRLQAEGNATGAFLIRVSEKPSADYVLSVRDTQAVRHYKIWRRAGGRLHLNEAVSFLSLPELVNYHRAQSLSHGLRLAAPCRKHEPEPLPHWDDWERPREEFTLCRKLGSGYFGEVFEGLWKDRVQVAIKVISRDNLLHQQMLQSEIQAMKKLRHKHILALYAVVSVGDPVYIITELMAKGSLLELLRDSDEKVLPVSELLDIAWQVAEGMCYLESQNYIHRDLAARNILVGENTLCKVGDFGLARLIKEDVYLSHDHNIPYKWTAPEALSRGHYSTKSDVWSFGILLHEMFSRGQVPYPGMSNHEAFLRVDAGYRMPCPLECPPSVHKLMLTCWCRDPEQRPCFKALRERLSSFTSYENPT

BTK = molecular target: T7, BTK (Homo sapiens, UniProt Q06187); assay: as above; type: biochemical; details: 1 h incubation, mean ± SD of four experiments
T7 construct: purchased Promega
T7 sequence (Q06187 whole entry): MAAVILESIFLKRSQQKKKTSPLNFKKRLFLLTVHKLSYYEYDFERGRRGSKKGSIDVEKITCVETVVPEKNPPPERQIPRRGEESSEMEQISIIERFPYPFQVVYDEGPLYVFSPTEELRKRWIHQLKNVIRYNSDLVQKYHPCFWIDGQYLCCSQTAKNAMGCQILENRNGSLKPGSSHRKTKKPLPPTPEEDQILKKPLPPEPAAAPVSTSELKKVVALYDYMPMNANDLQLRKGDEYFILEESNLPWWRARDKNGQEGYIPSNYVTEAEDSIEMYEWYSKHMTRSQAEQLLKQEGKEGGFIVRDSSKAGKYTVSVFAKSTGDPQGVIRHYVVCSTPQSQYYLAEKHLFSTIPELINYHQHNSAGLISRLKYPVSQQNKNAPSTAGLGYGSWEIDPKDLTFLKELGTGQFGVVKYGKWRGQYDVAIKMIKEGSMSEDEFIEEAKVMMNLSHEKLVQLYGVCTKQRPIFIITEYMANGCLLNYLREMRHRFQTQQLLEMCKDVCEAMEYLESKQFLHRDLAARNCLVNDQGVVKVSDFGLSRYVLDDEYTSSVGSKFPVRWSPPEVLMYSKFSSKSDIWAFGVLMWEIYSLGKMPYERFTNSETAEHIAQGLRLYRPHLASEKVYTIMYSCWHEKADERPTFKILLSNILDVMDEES

CSK = molecular target: T8, CSK (Homo sapiens, UniProt P41240); assay: as above; type: biochemical; details: 1 h incubation, mean ± SD of four experiments
T8 construct: purchased Promega

K562 cells = assay: Cell cycle assay (Muse Cell-Cycle Kit, flow cytometry); type: cell-based, human; details: 16 h, concentration not given; control 28.68%
Protocol: The interesting inhibitory potential of ABL kinase and the high antiproliferative activity of several styrylquinazoline derivatives prompted us to further investigate their mechanism of action.
K562 cells were seeded in 3 cm Petri dishes (Nunc) at a density of 150,000 cells per well and incubated under standard conditions at 37 °C for 24 h. […] After 16 h of treatment, assays were performed using a Muse Cell-Cycle Kit (Millipore) according to the supplier’s instructions. Briefly, leukaemia cells were collected, washed in cold PBS, and centrifuged. Cells were then fixed in ice-cold 70% ethanol and stored at −20 °C overnight. The next day, leukaemia cells were washed with cold PBS, centrifuged and resuspended in Muse™ Cell Cycle Reagent. Samples were incubated for 30 min at room temperature in the dark. After staining, the levels of cellular subpopulations in each cell cycle phase were determined using a Muse Cell Analyser (Millipore). Experiments were performed at least four times.

T1 sequence (P06241 whole entry): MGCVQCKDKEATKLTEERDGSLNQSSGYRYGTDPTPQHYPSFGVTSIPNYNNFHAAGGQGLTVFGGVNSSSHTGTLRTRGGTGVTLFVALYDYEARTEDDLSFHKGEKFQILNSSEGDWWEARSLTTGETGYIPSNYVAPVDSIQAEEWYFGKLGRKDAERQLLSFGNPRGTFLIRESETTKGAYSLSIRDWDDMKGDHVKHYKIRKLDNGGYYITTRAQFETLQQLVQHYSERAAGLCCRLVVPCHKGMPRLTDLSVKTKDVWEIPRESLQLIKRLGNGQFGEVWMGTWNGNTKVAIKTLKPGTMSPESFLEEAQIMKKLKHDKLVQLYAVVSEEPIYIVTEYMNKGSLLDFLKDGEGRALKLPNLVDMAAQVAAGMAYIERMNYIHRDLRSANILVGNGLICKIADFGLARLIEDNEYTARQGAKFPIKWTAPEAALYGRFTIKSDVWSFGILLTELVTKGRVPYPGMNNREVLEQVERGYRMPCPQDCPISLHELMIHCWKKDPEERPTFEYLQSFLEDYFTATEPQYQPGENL

| SMILES | inhibition at 0.5 µM (Fyn A) [%] | inhibition at 0.5 µM (ABL) [%] | inhibition at 0.5 µM (Src) [%] | inhibition at 0.5 µM (Lck) [%] | inhibition at 0.5 µM (Lyn B) [%] | inhibition at 0.5 µM (BRK) [%] | inhibition at 0.5 µM (BTK) [%] | inhibition at 0.5 µM (CSK) [%] | IC50 (NHDF) [µM] | IC50 (PANC-1) [µM] | IC50 (K562) [µM] | IC50 (HCT 116 p53+/+) [µM] | IC50 (A549) [µM] | IC50 (HCT 116 p53−/−) [µM] | IC50 (U-251) [µM] | other results |
| --- | --- | --- | --- | --- | --- | --- | --- | --- | --- | --- | --- | --- | --- | --- | --- | --- |
| COc1cccc(Sc2nc(/C=C/c3ccccc3OC)nc3ccccc23)c1 [IS7, 2-[(E)-2–(2-methoxyphenyl)ethenyl]-4–(3-methoxyphenylthio)quinazoline] | 25.7 ± 2.29 | 45.9 ± 2.63 | 8.17 ± 1.71 | 0 | 0 | 0 | 53.5 ± 1.33 | 39.3 ± 4.74 | > 20 | > 15 | > 10 | > 15 | > 15 | > 15 | > 15 |  |
| CNC(=O)c1ccccc1Sc1ccc2c(/C=C/c3ccccn3)n[nH]c2c1 [Axitinib, axitinib, reference compound] | 43.8 ± 2.96 |  | 10.8 ± 1.95 |  | 39 ± 9.95 | 0 |  | 11.4 ± 3.89 |  |  |  |  |  |  |  | Fraction of cells in the G2/M phase (K562 cells): 47.28% |
| COc1ccccc1/C=C/c1nc(Sc2ccccc2Br)c2ccccc2n1 [IS4, 2-[(E)-2–(2-methoxyphenyl)ethenyl]-4–(2-bromophenylthio)quinazoline] | 34.1 ± 2.53 | 29.8 ± 0.95 | 18.5 ± 1.07 | 0 | 3.39 ± 0.47 | 0 | 45.9 ± 7.54 | 17.4 ± 6.31 | > 25 | > 25 | > 15 | > 10 | > 15 | > 10 | > 15 | Inhibition of tyrosine kinase activity [%] BTK (BTK; 0.5 μM): moderate activity |
| COc1ccccc1/C=C/c1nc(Sc2ccc(SC)cc2)c2ccccc2n1 [IS9, 2-[(E)-2–(2-methoxyphenyl)ethenyl]-4-[4-(methylthio)phenylthio]quinazolin] | 52 ± 3.43 | 35.9 ± 7.23 | 54 | 60.7 ± 5.1 | 57 | 19.3 ± 4.65 | 28.7 ± 2.94 | 39.2 ± 6.47 | > 25 | > 25 | > 25 | > 20 | > 15 | > 20 | > 10 | Inhibition of tyrosine kinase activity [%] Src (Src; 0.5 μM): 54.23 ± 3.07%; Inhibition of tyrosine kinase activity [%] Lyn B (Lyn B; 0.5 μM): 57.44 ± 1.76% |

More lines, main results first:

| inhibition at 0.5 µM (Fyn A) [%] | inhibition at 0.5 µM (ABL) [%] | inhibition at 0.5 µM (Src) [%] | inhibition at 0.5 µM (Lck) [%] | inhibition at 0.5 µM (Lyn B) [%] | inhibition at 0.5 µM (BRK) [%] | inhibition at 0.5 µM (BTK) [%] | inhibition at 0.5 µM (CSK) [%] | SMILES | IC50 (NHDF) [µM] | IC50 (PANC-1) [µM] | IC50 (K562) [µM] | IC50 (HCT 116 p53+/+) [µM] | IC50 (A549) [µM] | IC50 (HCT 116 p53−/−) [µM] | IC50 (U-251) [µM] | other results |
| --- | --- | --- | --- | --- | --- | --- | --- | --- | --- | --- | --- | --- | --- | --- | --- | --- |
| 57.5 ± 4.04 | 41 | 53.4 ± 3.13 | 51.5 ± 4.55 | 32.3 ± 2.51 | 27.2 ± 1.31 | 39.3 ± 2.69 | 33.1 ± 1.19 | COc1ccccc1/C=C/c1nc(Sc2cc3c(cc2Br)OCO3)c2ccc(Cl)cc2n1 [IS15, 5-{2-[(E)-2–(2-methoxyphenyl)ethenyl]-7-chloroquinazolin-4-ylthio}-6-bromo-2H-1,3-benzodioxole] | > 25 | > 25 | 21.2 ± 2.19 | > 25 | > 25 | > 25 | > 25 | Inhibition of tyrosine kinase activity [%] ABL (ABL): 41.81 ± 4.38%; IC50 (MCF-7): > 25 µM |
| 19.8 ± 3.51 | 11.9 ± 2.86 | 21 ± 1.82 | 0 | 0 | 0 | 9.58 ± 0.62 | 7.77 ± 3.16 | COc1ccc(/C=C/c2nc(Sc3cc4c(cc3Br)OCO4)c3ccccc3n2)c(OC)c1 [IS17, 5-{2-[(E)-2–(2,4-dimethoxyphenyl)ethenyl]quinazolin-4-ylthio}-6-bromo-2H-1,3-benzodioxole] | 21.3 ± 0.8 | > 15 | > 10 | > 15 | > 15 | > 15 | 20.2 ± 0.9 | Inhibition of tyrosine kinase activity [%] ABL (ABL): inactive |
| 50.1 ± 3.49 | 35.6 ± 1.5 | 0 | 48.1 ± 6.55 | 0 | 0 | 13.1 ± 2.69 | 15.5 ± 2.88 | COc1ccc(/C=C/c2nc(Sc3ccccc3Cl)c3ccccc3n2)c(OC)c1 [IS16, 2-[(E)-2–(2,4-dimethoxyphenyl)ethenyl]-4–(2-chlorophenylthio)quinazoline] | 14.6 ± 1.27 | > 2.5 | 7.83 ± 0.753 | > 15 | 13.4 ± 0.6 | > 10 | 20.9 ± 1.63 | Selectivity index K562 (K562; versus NHDF): 3.20; Selectivity index HCT 116 p53+/+ (HCT 116 p53+/+; versus NHDF): 1.67; IC50 (MCF-7): > 25 µM; Selectivity index MCF-7 (MCF-7; versus NHDF): 1.00; Selectivity index A549 (A549; versus NHDF): 1.86; Selectivity index U-251 (U-251; versus NHDF): 1.20 |
